Laboratory results as given in patent US12144864B2, “Tubulysins and protein-tubulysin conjugates” (Regeneron Pharmaceuticals, Inc., priority 2018, dated 2024).
Read-outs that look alike come from different tables or passages of the source.

T1: STEAP2 endogenously expressed on C4-2 cells (human, UniProt Q8NFT2 1-490)
T1 sequence (looked up): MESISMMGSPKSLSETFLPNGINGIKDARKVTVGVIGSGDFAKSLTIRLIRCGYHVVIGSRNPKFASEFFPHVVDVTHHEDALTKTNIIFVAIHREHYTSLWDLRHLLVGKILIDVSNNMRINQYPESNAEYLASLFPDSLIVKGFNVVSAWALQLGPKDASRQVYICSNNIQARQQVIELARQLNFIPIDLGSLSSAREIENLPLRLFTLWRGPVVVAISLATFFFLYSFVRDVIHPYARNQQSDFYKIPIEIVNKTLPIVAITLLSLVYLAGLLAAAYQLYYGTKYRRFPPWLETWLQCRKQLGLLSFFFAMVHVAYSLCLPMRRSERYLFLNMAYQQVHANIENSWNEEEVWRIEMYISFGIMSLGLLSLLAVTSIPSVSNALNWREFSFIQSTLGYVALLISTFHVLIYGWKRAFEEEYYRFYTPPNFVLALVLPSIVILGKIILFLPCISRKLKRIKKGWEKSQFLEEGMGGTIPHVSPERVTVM


Key:
[1] = system: HL60/MX2 cells; test: Cytotoxicity in panel of MDR cell lines, HL60/MX2 (72 h and 144 h); format: cell-based, human; details: for IC50: Homo sapiens
How it was run: (§1)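 Cells were seeded at 1000 per well and grown overnight, then exposed to 1:3 serially diluted payloads for 72 h and 144 h. CellTiter-Glo reagent was added for 10 min at room temperature, and luminescence was read. IC50 values came from a four-parameter logistic fit.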

[2] = system: C4-2 cells; test: Cell-based killing assay of payloads (CellTiter-Glo), C4-2 cells; parameters: species or system human; details: 5-day incubation; for IC50: Homo sapiens, C4-2, 120 h, average ± SD where replicates; for C4-2 % Kill: at maximum concentration tested (100 − % viable cells)
How it was run: (§2)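 Cells plated at 4000/well in line-specific complete medium, grown overnight, then exposed to 1:3 serial dilutions of payload (100 nM to […]) for 5 days. ATP-based CellTiter-Glo luminescence read; IC50 from four-parameter logistic 10-point fit, and % kill at top concentration as 100 − % viable.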

[3] = system: HEK293 cells; test: Cell-based killing assay of payloads (CellTiter-Glo), HEK293 cells; parameters: species or system human; details: 5-day incubation; for IC50: Homo sapiens, HEK293, 120 h; for HEK293 % Kill: at maximum concentration tested
How it was run: as §2

[4] = system: H69AR cells; test: Cytotoxicity in panel of MDR cell lines, H69AR (72 h and 144 h); format: cell-based, human; details: for IC50: Homo sapiens
How it was run: as §1

[5] = system: C4-2 cells; test: Cytotoxicity of anti-STEAP2 ADCs, payloads and reference compounds in C4-2 cells; format: cell-based, human; details: for IC50: Homo sapiens, top concentration 100 nM, 3-fold serial dilution; for % kill: at maximum concentration tested
Protocol: (§3) To test the ability of the disclosed tubulysin payloads to kill human cell lines, an in vitro cytotoxicity assay was performed. In vitro cytotoxicity of the disclosed payloads, as well as reference compounds, were evaluated using the CellTiter-Glo Assay Kit (Promega, Cat #G7573), in which the quantity of ATP present is used to determine the number of viable cells in culture. For the assay, C4-2, HEK293, or T47D cells were seeded at 4000 cells/well on Nunclon white 96-well plates in complete growth medium (DME high glucose:Ham's F12 at 4:1, 10% FBS, 100 units/ml Penicillin, 100 ug/ml streptomycin, 53 ug/ml glutatmine, 10 ug/ml insulin, 220 ng/ml biotin, 12.5 pg/ml T3, 12.5 ug/ml Adenine, 4 ug/ml transferrin for C42 cells; DME high glucose, 10% FBS, 100 units/ml Penicillin, 100 ug/ml streptomycin, 53 ug/ml glutatmine for HEK293; RPMI, 10% FBS, 100 units/ml Penicillin, 100 ug/ml streptomycin, 53 ug/ml glutatmine, 10 ug/ml insulin, 10 mM HEPEs, 200 nM Sodium Pyruvate for T47D cells) and grown overnight at 37° C. in 5% CO2. For cell viability curves, 1:3 serially diluted payloads were added to the cells at final concentrations ranging from 100 nM to […], including a no treatment control group, and were then incubated for 5 days. After the 5-day incubation, cells were incubated at room temperature with 100 μL of CellTiter-Glo reagents for 10 minutes. Relative luminescence units (RLU) were determined on a Victor plate reader (PerkinElmer). The IC50 values were determined from a four-parameter logistic equation over a 10-point response curve (GraphPad Prism). All IC50 values are expressed in molar (M) concentration. The percent cell killing (% kill) at the maximum concentration tested was estimated from the following formula (100−% viable cells). Averages±standard deviation (SD) are included where replicate experiments were performed.
To further test the ability of the disclosed tubulysin payloads, reference compounds, and antibody drug conjugates using these payloads, a cytotoxicity assay was performed using C4-2 cells as described in this example (see above). For these studies, anti-STEAP2 antibodies were conjugated to select tubulysins payloads, and the compounds were tested at concentrations starting at 100 nM with 3-fold serial dilution. All IC50 values are expressed in nM concentration and the percent cell killing at the maximum concentration tested was estimated from the following formula (100−% viable cells).

[6] = system: T47D cells; test: Cell-based killing assay of payloads (CellTiter-Glo), T47D cells; parameters: species or system human; details: 5-day incubation; for IC50: Homo sapiens, T47D, 120 h; for T47D % Kill: at maximum concentration tested
How it was run: as §2

[7] = system: HCT15 cells; test: cells; format: cell-based, human; details: HCT15 cells; for HCT-15 + verapamil % Kill / HCT-15 % Kill: maximum % cell killing
How it was run: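 HCT15 colorectal carcinoma cells, 1000 per well in RPMI/10% FBS, with or without 5 ug/mL verapamil, exposed to 1:3 serially diluted payloads for 5 days at 37 °C. Viability measured by CellTiter-Glo ATP luminescence; IC50 from four-parameter logistic fit of a 10-point curve, % kill at top concentration.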

[8] = system: HCT-15 cells; test: Cytotoxicity in panel of MDR cell lines, HCT-15 (72 h and 144 h); format: cell-based, human; details: for IC50: Homo sapiens
How it was run: as §1

[9] = system: HCT15/PRLR cells; test: Cytotoxicity of anti-PRLR tubulysin ADCs and payloads in HCT15/PRLR cells with or without Verapamil; format: cell-based, human; details: for IC50: Homo sapiens, HCT-15; for % kill on HCT15/PRLR w/ Verapamil / % kill on HCT15/PRLR w/o Verapamil: at maximum concentration tested
Protocol: as §3
Bioassays were developed to assess the efficacy of an anti-PRLR antibody conjugated with the disclosed tubulysin payloads and reference payloads. It was developed to assess the activity of tubulysin payloads after internalization of an anti-PRLR-tubulysin ADC into cells, release of the payload, and subsequent cytotoxicity. For this assay, a HCT15 line was engineered to express human full length PRLR (accession #NP_000940.1). The resulting stable cell line is referred to herein as HCT15/PRLR. In vitro cytotoxicity of the disclosed payloads, reference compounds, and tested ADCs were evaluated similarly as described in this example using HCT15/PRLR cells with or without […] of Verapamil diluted in normal culture medium. The compounds were tested at concentrations starting at 100 nM with 3-fold serial dilution. All IC50 values are expressed in nM concentration and the percent cell killing (% kill) at the maximum concentration tested was estimated from the following formula (100−% viable cells).

[10] = system: MES-SA/MX2 cells; test: Cytotoxicity in panel of MDR cell lines, MES-SA/MX2 (72 h and 144 h); format: cell-based, human; details: for IC50: Homo sapiens
How it was run: as §1

[11] = molecular target: T1, STEAP2 endogenously expressed on C4-2 …; test: cell-based or functional assay
[12] = 72 h incubation, read-out: HL60/MX2 IC50 72 h
[13] = 144 h incubation, read-out: HL60/MX2 IC50 144 h
[14] = 72 h incubation, read-out: H69AR IC50 72 h
[15] = 144 h incubation, read-out: H69AR IC50 144 h
[16] = with 5 ug/mL Verapamil, read-out: HCT-15 + verapamil IC50
[17] = Homo sapiens, HCT-15, without Verapamil, read-out: HCT-15 IC50
[18] = 72 h incubation, read-out: HCT-15 IC50 72 h
[19] = 144 h incubation, read-out: HCT-15 IC50 144 h
[20] = with Verapamil, read-out: IC50 (nM) on HCT15/PRLR w/ Verapamil
[21] = without Verapamil, read-out: IC50 (nM) on HCT15/PRLR w/o Verapamil
[22] = 72 h incubation, read-out: MES-SA/MX2 IC50 72 h
[23] = 144 h incubation, read-out: MES-SA/MX2 IC50 144 h

Molecule	HL60/MX2 % Kill 72 h ([1]; 72 h incubation) [%]	HL60/MX2 % Kill 144 h ([1]; 144 h incubation) [%]	IC50 [1, 12] [nM]	IC50 [1, 13] [nM]	IC50 [2] [nM]	C4-2 % Kill [2] [%]	IC50 [3] [nM]	HEK293 % Kill [3] [%]	H69AR % Kill 72 h ([4]; 72 h incubation) [%]	H69AR % Kill 144 h ([4]; 144 h incubation) [%]	IC50 [4, 14] [nM]	IC50 [4, 15] [nM]	IC50 [5] [nM]	% kill [5] [%]	IC50 [6] [nM]	T47D % Kill [6] [%]	HCT-15 + verapamil % Kill ([7]; with 5 ug/mL Verapamil) [%]	IC50 [7, 16] [nM]	HCT-15 % Kill ([7]; without Verapamil) [%]	IC50 [7, 17] [nM]	other results
C#CCCCCN(C(=O)[C@@H](NC(=O)[C@H]1CCCCN1C)[C@@H](C)CC)[C@H](C[C@@H](OC(C)=O)c1nc(C(=O)N[C@@H](Cc2ccc(N)cc2)CC(C)(C)C(=O)O)cs1)C(C)C [IVd, (4S)-4-({2-[(1R,3R)-1-(Acetyloxy)-3-[(2S,3S)—N-(hex-5-yn-1-yl)-3-methyl-2-{[(2R)-1-methylpiperidin-2-yl]formamido}pentanamido]-4-methylpentyl]-1,3-thiazol-4-yl}formamido)-5-(4-aminophenyl)-2,2-dimethylpentanoic acid]	98.6	99.9	< 0.015	< 0.015	0.0164	93.7 ± 1.8	0.0572	85.4	96.9	99.5	0.0564	0.133	0.022	99	0.035	84.5	97.7 ± 1.8	0.0407	98.2 ± 0.5	0.057	HCT-15 % Kill 72 h ([8]; 72 h incubation): 97.6%; HCT-15 % Kill 144 h ([8]; 144 h incubation): 99.7%; IC50 [8, 18]: 0.00888 nM; IC50 [8, 19]: 0.0295 nM; IC50 [9, 20]: 0.015 nM; IC50 [9, 21]: 0.037 nM; % kill on HCT15/PRLR w/ Verapamil ([9]; with Verapamil): 99%; % kill on HCT15/PRLR w/o Verapamil ([9]; without Verapamil): 99%; MES-SA/MX2 % Kill 72 h ([10]; 72 h incubation): 99.5%; MES-SA/MX2 % Kill 144 h ([10]; 144 h incubation): 100%; IC50 [10, 22]: 0.0541 nM; IC50 [10, 23]: 0.13 nM
C#CCCCON(C(=O)[C@@H](NC(=O)[C@H]1CCCCN1C)[C@@H](C)CC)[C@H](C[C@@H](OC(C)=O)c1nc(C(=O)N[C@@H](Cc2ccc(N)cc2)CC(C)(C)C(=O)O)cs1)C(C)C [Ve, (4S)-4-({2-[(1R,3R)-1-(Acetyloxy)-4-methyl-3-[(2S,3S)-3-methyl-2-{[(2R)-1-methylpiperidin-2-yl]formamido}-N-(pent-4-yn-1-yloxy)pentanamido]pentyl]-1,3-thiazol-4-yl}formamido)-5-(4-aminophenyl)-2,2-dimethylpentanoic acid]	98.3	100	< 0.015	< 0.015	< 0.047	92.6	0.103	88.5	96.6	99.5	0.331	0.559	0.063	99	0.0731	69.8	98.2 ± 1.2	0.0654	98.6 ± 0.7	0.273	HCT-15 % Kill 72 h ([8]; 72 h incubation): 97.5%; HCT-15 % Kill 144 h ([8]; 144 h incubation): 99.7%; IC50 [8, 18]: 0.0922 nM; IC50 [8, 19]: 0.158 nM; IC50 [9, 20]: 0.033 nM; IC50 [9, 21]: 0.203 nM; % kill on HCT15/PRLR w/ Verapamil ([9]; with Verapamil): 99%; % kill on HCT15/PRLR w/o Verapamil ([9]; without Verapamil): 99%; MES-SA/MX2 % Kill 72 h ([10]; 72 h incubation): 98.9%; MES-SA/MX2 % Kill 144 h ([10]; 144 h incubation): 100%; IC50 [10, 22]: 0.52 nM; IC50 [10, 23]: 0.734 nM
Anti-STEAP2 N297Q Ab-LP3 (antibody, V domains shown, N297Q (EU numbering) in the heavy chain constant region; linker-payload LP3 (payload IVd) clicked to azido-PEG3-amine that transglutaminase put on heavy chain glutamines; DAR 3.8 (Table 7)) VH: QVQLVESGGGVVQPGRSLRLSCVASGFTISSYGMNWVRQAPGKGLEWVAVISYDGGNKYSVDSVKGRFTISRDNSKNTLYLQMNSLRAEDSAVYYCARGRYFDLWGRGTLVTVSS VL: DIQMTQSPSTLSASVGDRVTITCRASQSISSWLAWYQQKPGRAPNLLISKASSLKSGVPSRFSGSGSGTEFTLTVSSLQPDDFATYYCQQYYSYSYTFGQGTKLEIK																					% kill, C4-2 cells [11]: 99%; IC50 (nM), cytotoxicity in C4-2 cells (CellTiter-Glo) [11]: 0.097 nM
Anti-STEAP2 N297Q Ab-LP4 (antibody, V domains shown, N297Q (EU numbering) in the heavy chain constant region; linker-payload LP4 (payload Ve) clicked to azido-PEG3-amine that transglutaminase put on heavy chain glutamines; DAR 3.8 (Table 7)) VH: QVQLVESGGGVVQPGRSLRLSCVASGFTISSYGMNWVRQAPGKGLEWVAVISYDGGNKYSVDSVKGRFTISRDNSKNTLYLQMNSLRAEDSAVYYCARGRYFDLWGRGTLVTVSS VL: DIQMTQSPSTLSASVGDRVTITCRASQSISSWLAWYQQKPGRAPNLLISKASSLKSGVPSRFSGSGSGTEFTLTVSSLQPDDFATYYCQQYYSYSYTFGQGTKLEIK																					% kill, C4-2 cells [11]: 99%; IC50 (nM), cytotoxicity in C4-2 cells (CellTiter-Glo) [11]: 0.15 nM
